These compounds were tested on microfilariae of Dirofilaria immitis (assay: Dirofilaria immitis, Microfilaria (DiMF) In vitro Assay). Conditions: 72 h, read-out: DiMF Minimum Effective Dose (MED), approximately 72 hours incubation, microfilariae assessed for survival or paralysis.
Format: cell-based

Structure (SMILES)	minimal effective concentration [µM]
CC(C)C[C@H]1C(=O)O[C@H](Cc2ccc(Cn3cc(C#CC(C)(C)C)cn3)cc2)C(=O)N(C)[C@@H](CC(C)C)C(=O)O[C@H](C)C(=O)N(C)[C@@H](CC(C)C)C(=O)O[C@H](Cc2ccccc2)C(=O)N(C)[C@@H](CC(C)C)C(=O)O[C@H](C)C(=O)N1C [Example 2-71, (3S,6R,9S,12R,15S,18R,21S,24R)-6-benzyl-18-(4-((4-(3,3-dimethylbut-1-yn-1-yl)-1H-pyrazol-1-yl)methyl)benzyl)-3,9,15,21-tetraisobutyl-4,10,12,16,22,24-hexamethyl-1,7,13,19-tetraoxa-4,10,16,22-tetraazacyclotetracosan-2,5,8,11,14,17,20,23-octaone]	0.01 to 0.1
CC(C)C[C@H]1C(=O)O[C@H](Cc2ccc(Cn3ccc(C(C)(C)C)n3)cc2)C(=O)N(C)[C@@H](CC(C)C)C(=O)O[C@H](C)C(=O)N(C)[C@@H](CC(C)C)C(=O)O[C@H](Cc2ccccc2)C(=O)N(C)[C@@H](CC(C)C)C(=O)O[C@H](C)C(=O)N1C [Example 2-72, (3S,6R,9S,12R,15S,18R,21S,24R)-6-benzyl-18-(4-((3-(tert-butyl)-1H-pyrazol-1-yl)methyl)benzyl)-3,9,15,21-tetraisobutyl-4,10,12,16,22,24-hexamethyl-1,7,13,19-tetraoxa-4,10,16,22-tetraazacyclotetracosan-2,5,8,11,14,17,20,23-octaone]	0.01 to 0.1
CC(C)C[C@H]1C(=O)O[C@H](Cc2ccc(Cn3cc(C#CC4CC4)cn3)cc2)C(=O)N(C)[C@@H](CC(C)C)C(=O)O[C@H](C)C(=O)N(C)[C@@H](CC(C)C)C(=O)O[C@H](Cc2ccccc2)C(=O)N(C)[C@@H](CC(C)C)C(=O)O[C@H](C)C(=O)N1C [Example 2-75, (3S,6R,9S,12R,15S,18R,21S,24R)-6-benzyl-18-(4-((4-(cyclopropylethynyl)-1H-pyrazol-1-yl)methyl)benzyl)-3,9,15,21-tetraisobutyl-4,10,12,16,22,24-hexamethyl-1,7,13,19-tetraoxa-4,10,16,22-tetraazacyclotetracosan-2,5,8,11,14,17,20,23-octaone]	0.001 to 0.01
Cc1nn(Cc2ccc(C[C@H]3OC(=O)[C@H](CC(C)C)N(C)C(=O)[C@@H](C)OC(=O)[C@H](CC(C)C)N(C)C(=O)[C@@H](Cc4ccccc4)OC(=O)[C@H](CC(C)C)N(C)C(=O)[C@@H](C)OC(=O)[C@H](CC(C)C)N(C)C3=O)cc2)c(C)c1C#N [Example 2-78, 1-(4-(((2R,5S,8R,11S,14R,17S,20R,23S)-14-benzyl-5,11,17,23-tetraisobutyl-4,8,10,16,20,22-hexamethyl-3,6,9,12,15,18,21,24-octaoxo-1,7,13,19-tetraoxa-4,10,16,22-tetraazacyclotetracosan-2-yl)methyl)benzyl)-3,5-dimethyl-1H-pyrazole-4-carbonitrile]	0.01 to 0.1
Cc1nn(Cc2ccc(C[C@H]3OC(=O)[C@H](CC(C)C)N(C)C(=O)[C@@H](C)OC(=O)[C@H](CC(C)C)N(C)C(=O)[C@@H](Cc4ccccc4)OC(=O)[C@H](CC(C)C)N(C)C(=O)[C@@H](C)OC(=O)[C@H](CC(C)C)N(C)C3=O)cc2)c(C)c1C(F)(F)F [Example 2-81, (3S,6R,9S,12R,15S,18R,21S,24R)-6-benzyl-18-(4-((3,5-dimethyl-4-(trifluoromethyl)-1H-pyrazol-1-yl)methyl)benzyl)-3,9,15,21-tetraisobutyl-4,10,12,16,22,24-hexamethyl-1,7,13,19-tetraoxa-4,10,16,22-tetraazacyclotetracosan-2,5,8,11,14,17,20,23-octaone]	0.01 to 0.1
CCc1nn(Cc2ccc(C[C@H]3OC(=O)[C@H](CC(C)C)N(C)C(=O)[C@@H](C)OC(=O)[C@H](CC(C)C)N(C)C(=O)[C@@H](Cc4ccccc4)OC(=O)[C@H](CC(C)C)N(C)C(=O)[C@@H](C)OC(=O)[C@H](CC(C)C)N(C)C3=O)cc2)c(CC)c1[N+](=O)[O-] [Example 2-82, (3S,6R,9S,12R,15S,18R,21S,24R)-6-benzyl-18-(4-((3,5-diethyl-4-nitro-1H-pyrazol-1-yl)methyl)benzyl)-3,9,15,21-tetraisobutyl-4,10,12,16,22,24-hexamethyl-1,7,13,19-tetraoxa-4,10,16,22-tetraazacyclotetracosan-2,5,8,11,14,17,20,23-octaone]	0.01 to 0.1
CC(C)C[C@H]1C(=O)O[C@H](Cc2ccc(Cn3ccc(C(C)C)n3)cc2)C(=O)N(C)[C@@H](CC(C)C)C(=O)O[C@H](C)C(=O)N(C)[C@@H](CC(C)C)C(=O)O[C@H](Cc2ccccc2)C(=O)N(C)[C@@H](CC(C)C)C(=O)O[C@H](C)C(=O)N1C [Example 2-83, (3S,6R,9S,12R,15S,18R,21S,24R)-6-benzyl-3,9,15,21-tetraisobutyl-18-(4-((3-isopropyl-1H-pyrazol-1-yl)methyl)benzyl)-4,10,12,16,22,24-hexamethyl-1,7,13,19-tetraoxa-4,10,16,22-tetraazacyclotetracosan-2,5,8,11,14,17,20,23-octaone]	0.01 to 0.1
CC(C)C[C@H]1C(=O)O[C@H](Cc2ccc(Cn3cc(-c4cn(C)nn4)cn3)cc2)C(=O)N(C)[C@@H](CC(C)C)C(=O)O[C@H](C)C(=O)N(C)[C@@H](CC(C)C)C(=O)O[C@H](Cc2ccccc2)C(=O)N(C)[C@@H](CC(C)C)C(=O)O[C@H](C)C(=O)N1C [Example 2-84, (3S,6R,9S,12R,15S,18R,21S,24R)-6-benzyl-3,9,15,21-tetraisobutyl-4,10,12,16,22,24-hexamethyl-18-(4-((4-(1-methyl-1H-1,2,3-triazol-4-yl)-1H-pyrazol-1-yl)methyl)benzyl)-1,7,13,19-tetraoxa-4,10,16,22-tetraazacyclotetracosan-2,5,8,11,14,17,20,23-octaone]	0.01 to 0.1
CC(C)C[C@H]1C(=O)O[C@H](Cc2ccc(Cn3nc(C4CC4)c(N)c3C3CC3)cc2)C(=O)N(C)[C@@H](CC(C)C)C(=O)O[C@H](C)C(=O)N(C)[C@@H](CC(C)C)C(=O)O[C@H](Cc2ccccc2)C(=O)N(C)[C@@H](CC(C)C)C(=O)O[C@H](C)C(=O)N1C [Example 2-85, (3S,6R,9S,12R,15S,18R,21S,24R)-6-(4-((4-amino-3,5-dicyclopropyl-1H-pyrazol-1-yl)methyl)benzyl)-18-benzyl-3,9,15,21-tetraisobutyl-4,10,12,16,22,24-hexamethyl-1,7,13,19-tetraoxa-4,10,16,22-tetraazacyclotetracosan-2,5,8,11,14,17,20,23-octaone]	0.01 to 0.1
CCc1nn(Cc2ccc(C[C@H]3OC(=O)[C@H](CC(C)C)N(C)C(=O)[C@@H](C)OC(=O)[C@H](CC(C)C)N(C)C(=O)[C@@H](Cc4ccccc4)OC(=O)[C@H](CC(C)C)N(C)C(=O)[C@@H](C)OC(=O)[C@H](CC(C)C)N(C)C3=O)cc2)c(CC)c1N [Example 2-86, (3S,6R,9S,12R,15S,18R,21S,24R)-6-(4-((4-amino-3,5-diethyl-1H-pyrazol-1-yl)methyl)benzyl)-18-benzyl-3,9,15,21-tetraisobutyl-4,10,12,16,22,24-hexamethyl-1,7,13,19-tetraoxa-4,10,16,22-tetraazacyclotetracosan-2,5,8,11,14,17,20,23-octaone]	0.01 to 0.1
CC(C)C[C@H]1C(=O)O[C@H](Cc2ccc(Cn3ccc(C4CCCC4)n3)cc2)C(=O)N(C)[C@@H](CC(C)C)C(=O)O[C@H](C)C(=O)N(C)[C@@H](CC(C)C)C(=O)O[C@H](Cc2ccccc2)C(=O)N(C)[C@@H](CC(C)C)C(=O)O[C@H](C)C(=O)N1C [Example 2-88, (3S,6R,9S,12R,15S,18R,21S,24R)-6-benzyl-18-(4-((3-cyclopentyl-1H-pyrazol-1-yl)methyl)benzyl)-3,9,15,21-tetraisobutyl-4,10,12,16,22,24-hexamethyl-1,7,13,19-tetraoxa-4,10,16,22-tetraazacyclotetracosan-2,5,8,11,14,17,20,23-octaone]	0.01 to 0.1
CC(C)C[C@H]1C(=O)O[C@H](Cc2cccc(Cn3cccn3)c2)C(=O)N(C)[C@@H](CC(C)C)C(=O)O[C@H](C)C(=O)N(C)[C@@H](CC(C)C)C(=O)O[C@H](Cc2cccc(Cn3cccn3)c2)C(=O)N(C)[C@@H](CC(C)C)C(=O)O[C@H](C)C(=O)N1C [Example 4-1, (3S,6R,9S,12R,15S,18R,21S,24R)-6,18-bis(3-((1H-pyrazol-1-yl)methyl)benzyl)-3,9,15,21-tetraisobutyl-4,10,12,16,22,24-hexamethyl-1,7,13,19-tetraoxa-4,10,16,22-tetraazacyclotetracosan-2,5,8,11,14,17,20,23-octaone]	0.001 to 0.01
COc1cnn(Cc2cccc(C[C@H]3OC(=O)[C@H](CC(C)C)N(C)C(=O)[C@@H](C)OC(=O)[C@H](CC(C)C)N(C)C(=O)[C@@H](Cc4cccc(Cn5cc(OC)cn5)c4)OC(=O)[C@H](CC(C)C)N(C)C(=O)[C@@H](C)OC(=O)[C@H](CC(C)C)N(C)C3=O)c2)c1 [Example 4-9, (3S,6R,9S,12R,15S,18R,21S,24R)-3,9,15,21-tetraisobutyl-6,18-bis(3-((4-methoxy-1H-pyrazol-1-yl)methyl)benzyl)-4,10,12,16,22,24-hexamethyl-1,7,13,19-tetraoxa-4,10,16,22-tetraazacyclotetracosan-2,5,8,11,14,17,20,23-octaone]	0.01 to 0.1
CC(C)C[C@H]1C(=O)O[C@H](Cc2cccc(Cn3nc(C#N)cc3C#N)c2)C(=O)N(C)[C@@H](CC(C)C)C(=O)O[C@H](C)C(=O)N(C)[C@@H](CC(C)C)C(=O)O[C@H](Cc2cccc(Cn3nc(C#N)cc3C#N)c2)C(=O)N(C)[C@@H](CC(C)C)C(=O)O[C@H](C)C(=O)N1C [Example 4-14, 1,1′-(((((2R,5S,8R,11S,14R,17S,20R,23S)-5, 11,17,23-tetraisobutyl-4,8,10,16,20,22-hexamethyl-3,6,9,12,15,18,21,24-octaoxo-1,7,13,19-tetraoxa-4,10,16,22-tetraazacyclotetracosane-2,14-diyl)bis(methylene))bis(3,1-phenylene))bis(methylene))bis(1H-pyrazole-3,5-dicarbonitrile)]	0.001 to 0.01

Reference: patent publication US11331369B2, “Endoparasitic depsipeptides” (Zoetis Services LLC, priority 2017, dated 2022)
